Literature values, collected in patent EP0713864A1, “Substituted benzoylguanidines, process for their preparation, their use as medicament of diagnostic agent as well as medicaments containing them” (HOECHST AKTIENGESELLSCHAFT, priority 1994, dated 1996).

Tested on: Kammerflimmern
Conditions: isolated rat hearts; Eur. Heart J. 9 (suppl.1): 167 (1988)

Compound	Unterdrückung eines künstlich ausgelösten Kammerflimmerns
N=C(N)NC(=O)c1nc(Cl)c(N)nc1N [Amilorid]	völlig unterdrückt
CCN(c1nc(N)c(C(=O)NC(=N)N)nc1Cl)C(C)C [Ethylisopropylamilorid]	Noch potenter als Amilorid
